Results on one molecule are retold here after patent US8986667B2, “Cosmetic composition with skin tightening effect” (LVMH Recherche, priority 2001, dated 2015).

This series has as its system human skin. In words: Kinetics of penetration of caffeine through thawed human skin mounted on Franz cells. Format: in vitro ADME. Particulars: receptor liquid. The source says: This study is made, in vitro, on human skin, which is kept beforehand by freezing, with the aim of evaluating the influence of the mixture according to the invention on the penetration and the distribution of caffeine within the skin beds. The occlusive properties of a gel according to the invention lead the research of an eventual patch effect. This study is made in comparison with a Carbopol gel.
The principle of the study is based on the evaluation of the diffusion of an active principle through the thawed human skin which is mounted on Franz cells.
These cells are constituted of two glass elements which delimit an upper partition and a lower partition, and they have an exposed surface area of […]. The skin is placed between these two elements, stratum corneum to the top. The active principle deposited on the skin crosses it and is collected in the lower partition, dissolved in a solution which is known as the receptor solution and which is constituted of a phosphate buffer+Na nitride (0.1%) mixture. […]
The kinetics of penetration, in μg/cm^2 per unit time, is expressed as a function of the interval of confidence, the IC95%, wherein the residual standard deviation is calculated by the ANOVA method over the whole of the tests. […]

As for `Cn1c(=O)c2c(ncn2C)n(C)c1=O` [caffeine], the “maximum concentration of caffeine collected during the study” value is given as “less than 23 μg/mL”.
